Measured values reported in patent US20140088144A1, “INHIBITING MICROBIAL INFECTIONS” (THE UNIVERSITY OF KANSAS, priority 2012, published 2014).
pIC50: −log10 of the molar value.

Columns and labels:
[1] = biological target: T1, RhaS(163-278) (RhaS DNA-binding domain) (Escherichia coli, UniProt P09377); experiment: In vivo dose-response, rhaB-lacZ fusion activated by RhaS(163-278) (RhaS-DBD); assay type: cell-based, E. coli
T1 construct: expressed in transfected cells; host or cells: E. coli SME3635 (rhaB-lacZ, pHG165 expressing RhaS(163-278))
T1 sequence (P09377 163-278): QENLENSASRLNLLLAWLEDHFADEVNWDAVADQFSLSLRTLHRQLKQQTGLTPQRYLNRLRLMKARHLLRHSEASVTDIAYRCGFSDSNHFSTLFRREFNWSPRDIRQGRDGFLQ
Excerpt: For dose-response studies, a rhaB-lacZ reporter strain was designed that allowed IPTG induction of RhaS or RhaS(163-278) expression from pHG165 (and thus rhaB-lacZ expression). The strain was constructed by introducing malP::lacIq into SME3000 via phage P1vir-mediated generalized transduction. First, SME3000 was transduced with Δcrp-3 zhc-511::Tn10 from SME1403, selecting for tetracycline resistance and screening for sorbitol deficiency (indicating Δcrp) using MacConkey sorbitol. SME3000 Acrp-3 zhc-511::Tn10 was transduced with crp^+ malP::lacI^q from SG22166, selecting for growth on minimal sorbitol and screening for maltose deficiency (indicating malP::lacI^q) using MacConkey maltose. […]
The top hit identified in the screen was 1-ethyl-4-(nitromethyl)-3-quinolin-2-yl-4H-quinoline, Compound 2. […] Lysis/ONPG buffer (50 μL, as in Primary Screen) was added to each well and the plate was immediately placed into a PowerWave XS plate reader (BioTek Instruments, Inc., Winooski, Vt.), set to read the OD420 of each well every 15 min for 4 hr. […] Due to differences in kinetics of lacZ reporter expression, the rhaB-lacZ strains were analyzed at 4 hours and the hts-lacZ strain was analyzed at 1 hr. Percent activity was calculated for each condition as described above, using the single time point with appropriate OD420 levels for each strain. […]

[2] = biological target: VirF (Shigella flexneri, UniProt P0A2T1); experiment: In vivo dose-response, VirF-activated virB-lacZ fusion in E. coli; assay type: cell-based; set-up: expressed in transfected cells; host or cells: E. coli SME4382 (virB-lacZ, pHG165virF)
Sequence of VirF (P0A2T1 whole entry, the tested form may be a part): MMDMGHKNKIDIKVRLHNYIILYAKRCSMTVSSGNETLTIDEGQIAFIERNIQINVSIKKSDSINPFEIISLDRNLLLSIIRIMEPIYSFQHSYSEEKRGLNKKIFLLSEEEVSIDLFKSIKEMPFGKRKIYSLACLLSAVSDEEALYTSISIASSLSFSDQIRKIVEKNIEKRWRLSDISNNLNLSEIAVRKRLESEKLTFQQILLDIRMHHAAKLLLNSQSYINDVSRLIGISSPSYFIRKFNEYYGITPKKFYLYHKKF
Excerpt: For dose-response studies, a virB-lacZ reporter strain was constructed that allowed IPTG (isopropyl-β-D-thiogalactopyranoside) induced expression of VirF from plasmid pHG165. To construct this virB-lacZ reporter strain, kMAD102 was isolated from strain AB97, used to infect strain ECL116, and single copy lysogens were identified. Plvir-mediated generalized transductions were then used to add malP::lacI^q and recA::cat to this strain, as described previously. The virF gene was amplified (Forward oligo, Reverse oligo), digested with EcoRI and PstI and then ligated into the same sites of plasmid pHG165. The resulting plasmid, pHG165virF was transformed into SME4259 to make SME4382 (FIG. 20, Top). A control strain, SME3359, which carries a single copy hts-lacZ reporter fusion in the chromosome and a plasmid pHG165lacI that expresses LacI protein (FIG. 20, Bottom), was constructed. Briefly, the hts-lacZ reporter fusion consists of a synthetic promoter that is repressed by Lad.
In vivo dose-response assays were performed using a procedure described previously. […] Bacterial cultures were mixed with varying concentrations of SE-1 (2.2% DMSO, final), induced with 6.5 mM IPTG for 3 h at 37° C., lysed and β-galactosidase activity was measured. […] IC50 values were calculated and graphs were drawn using Prism (GraphPad, La Jolla, Calif.).

[3] = system: Shigella invasion of HeLa cells; experiment: Shigella invasion of HeLa cells; assay type: cell-based, Shigella flexneri strain M90T; details: bacteria grown with compound before addition to cells
Description: We assayed the effect of Compound 1 on the interaction of Shigella with cultured human epithelial cells. Shigella flexneri strain M90T was grown to maximize type III secretion system [Shigella] expression. Shigella was assayed for invasion of HeLa cells. The bacterial cells were grown in the presence of Compound 1 prior to addition to tissue culture wells. Invasion assays involved, briefly, incubation of Shigella cells in tissue culture wells, washing to remove non-adherent bacteria, addition of gentamycin to kill bacterial cells that had not invaded the epithelial cells, trypsin treatment to dislodge epithelial cells, serial dilutions and plating on LB to enumerate bacterial colonies

`CCCCN1C=C(c2ccc3ccccc3n2)C(C[N+](=O)[O-])c2ccccc21` (centres unmarked) [Compound 1, 1-butyl-4-(nitromethyl)-3-quinolin-2-yl-4H-quinoline] was tested, and the “inhibition of RhaS(163-278)-activated expression” value ([1]; RhaS-DBD) was “fully inhibit expression”, the pIC50 ([1]; RhaS-DBD (SME3635), read-out: IC50, rhaB-lacZ activation by RhaS(163-278)) was about 5.00 and the pIC50 ([2]; IC50, virB-lacZ reporter fusion expression, E. coli strain with plasmid-expressed VirF) was about 5.10. The “inhibition of in vivo activation by VirF” value ([2]; compared with full-length RhaS) was “similar, if not greater, extent than full-length RhaS” and the “ability of Shigella to invade human epithelial cells” value [3] was “reduced”.
